Assay results: ChEMBL document CHEMBL4483862, “Open-source discovery of chemical leads for next-generation chemoprotective antimalarials” (2018)
pIC50: −log10 of the molar value.

Tested on: Plasmodium berghei
Assay: Luciferase/luciferin-expressing antifolate-resistant parasites were used to infect a culture of HepG2 cells that were pre-incubated with compounds. Infected hepatocytes emit light due to the luciferase reaction. Assay results are presented as the percent inhibition of light emission compared to control. […]
Assay type: functional
Settings: sporozoite; for IC90: read-out: LUCIFERASE INFECTION ASSAY - IC90

Row | Compound | IC90 [µM] | further results
1 | COc1ccc(CCNC(=S)NC(=O)c2c(-c3ccccc3Cl)noc2C)cc1OC | > 7.17 | pIC50 (PBLUC_HILL_SLOPE 1.8, PBLUC_R_SQUARED 0.103, read-out: LUCIFERASE INFECTION ASSAY - IC50): < 5.14
2 | CC(=O)c1ccc(-c2ccc(C(=O)N3CCCc4ccccc43)o2)cc1 | 0.942 | pIC50 (PBLUC_HILL_SLOPE 1.77, PBLUC_R_SQUARED 0.773, read-out: LUCIFERASE INFECTION ASSAY - IC50): 6.57
3 | CC(C)(C)Nc1ncnc2sc(-c3ccccc3)cc12 | > 10 | pIC50 (PBLUC_HILL_SLOPE 1.75, PBLUC_R_SQUARED 0.697, read-out: LUCIFERASE INFECTION ASSAY - IC50): 5.30
4 | Cc1ccc(S(=O)(=O)Nc2cc(SCC(=O)O)c(O)c3ccccc23)cc1 | > 10 | pIC50 (PBLUC_HILL_SLOPE 1.74, PBLUC_R_SQUARED 0.143, read-out: LUCIFERASE INFECTION ASSAY - IC50): < 5.00
5 | CCN(Cc1ccccc1)S(=O)(=O)c1ccc2c(c1)CCCN2C(C)=O | > 10 | pIC50 (PBLUC_HILL_SLOPE 1.76, PBLUC_R_SQUARED 0.382, read-out: LUCIFERASE INFECTION ASSAY - IC50): 5.06
6 | CC(C)N1CCN(c2ccc(-c3cn4c(-c5ccc(O)cc5)cnc4cn3)cc2)CC1 | > 7.98 | pIC50 (PBLUC_HILL_SLOPE 1.81, PBLUC_R_SQUARED 0.0513, read-out: LUCIFERASE INFECTION ASSAY - IC50): < 5.10
7 | CN(C)c1ccc(-c2cnc3cnc(-c4ccc(CNc5ccccc5)cc4)cn23)cc1 | > 7.87 | pIC50 (PBLUC_HILL_SLOPE 1.8, PBLUC_R_SQUARED 0.529, read-out: LUCIFERASE INFECTION ASSAY - IC50): 5.37
8 | Cc1[nH]c2ccccc2c1C(=O)C(C)Sc1ccc2c(c1)OCCCO2 (stereo not given) | > 10 | pIC50 (PBLUC_HILL_SLOPE 1.73, PBLUC_R_SQUARED 0.284, read-out: LUCIFERASE INFECTION ASSAY - IC50): 5.50
9 | COc1cc(/C=N/NC(=O)c2ccccc2NS(=O)(=O)c2cccs2)ccc1OCCC(C)C | 1.06 | pIC50 (PBLUC_HILL_SLOPE 1.78, PBLUC_R_SQUARED 0.852, read-out: LUCIFERASE INFECTION ASSAY - IC50): 6.51
10 | Cc1sc2nc(-c3cccs3)nc(N3CCN(C(=O)c4ccccc4)CC3)c2c1C | > 10 | pIC50 (PBLUC_HILL_SLOPE 1.78, PBLUC_R_SQUARED 0.529, read-out: LUCIFERASE INFECTION ASSAY - IC50): 5.31
11 | O=C(c1ccccc1)C1CCN(C(=O)/C=C/c2cccc(Cl)c2Cl)CC1 | > 10 | pIC50 (PBLUC_HILL_SLOPE 1.75, PBLUC_R_SQUARED 0.122, read-out: LUCIFERASE INFECTION ASSAY - IC50): < 5.00
12 | CN1CCC2(CC1)CC(Nc1ccc(C(F)(F)F)cc1[N+](=O)[O-])c1ccccc1O2 (stereo not given) | > 10 | pIC50 (PBLUC_HILL_SLOPE 1.75, PBLUC_R_SQUARED 0.131, read-out: LUCIFERASE INFECTION ASSAY - IC50): < 5.00
13 | N#C/C=C1\SCC(=O)N1CC(=O)c1ccc([N+](=O)[O-])cc1 | > 10 | pIC50 (PBLUC_HILL_SLOPE 1.79, PBLUC_R_SQUARED 0.472, read-out: LUCIFERASE INFECTION ASSAY - IC50): 5.28
14 | FC(F)(F)c1nc(N2CCN(c3ccncc3)CC2)c2ccccc2n1 | > 10 | pIC50 (PBLUC_HILL_SLOPE 1.73, PBLUC_R_SQUARED 0.515, read-out: LUCIFERASE INFECTION ASSAY - IC50): 5.39
15 | CCOC(=O)Cc1csc(SCC(=O)c2cc(C)n(-c3ccc4c(c3)OCO4)c2C)n1 | > 10 | pIC50 (PBLUC_HILL_SLOPE 1.81, PBLUC_R_SQUARED 0.311, read-out: LUCIFERASE INFECTION ASSAY - IC50): 5.33
16 | N#Cc1ccsc1NC(=O)CN1CCN(CC(=O)Nc2ccc(Cl)c(C(F)(F)F)c2)CC1 | > 10 | pIC50 (PBLUC_HILL_SLOPE 1.73, PBLUC_R_SQUARED 0.28, read-out: LUCIFERASE INFECTION ASSAY - IC50): 5.30
17 | COc1cc2[nH]c(CSc3nnc(-c4ccccc4F)n3C3CC3)nc(=O)c2cc1OC | > 10 | pIC50 (PBLUC_HILL_SLOPE 1.81, PBLUC_R_SQUARED 0.0649, read-out: LUCIFERASE INFECTION ASSAY - IC50): < 5.00
18 | Fc1ccccc1-n1cnnc1SC(c1ccccc1)c1ccccc1 | 1.93 | pIC50 (PBLUC_HILL_SLOPE 1.8, PBLUC_R_SQUARED 0.792, read-out: LUCIFERASE INFECTION ASSAY - IC50): 6.24
19 | CC(NCc1ccc(N(C)CCO)cc1)c1ccc(-c2ccccc2)cc1 (stereo not given) | > 10 | pIC50 (PBLUC_HILL_SLOPE 1.73, PBLUC_R_SQUARED 0.432, read-out: LUCIFERASE INFECTION ASSAY - IC50): 5.10
20 | Cc1ccc(CSc2nnc(OC(=O)N(C)C)n2-c2cccc(Cl)c2)cc1 | > 8.19 | pIC50 (PBLUC_HILL_SLOPE 1.76, PBLUC_R_SQUARED 0.153, read-out: LUCIFERASE INFECTION ASSAY - IC50): 5.16

Row | Compound | IC90 [µM] | further results
21 | CCC1CCCCN1CC(O)COC(c1ccc(Cl)cc1)c1ccc(Cl)cc1 (stereo not given) | > 10 | pIC50 (PBLUC_HILL_SLOPE 1.73, PBLUC_R_SQUARED 0.487, read-out: LUCIFERASE INFECTION ASSAY - IC50): 5.25
22 | COc1ccc(-c2nc(-c3ccccc3)c(-c3ccccc3)[nH]2)cc1OCC(N)=O | > 10 | pIC50 (PBLUC_HILL_SLOPE 1.74, PBLUC_R_SQUARED 0.661, read-out: LUCIFERASE INFECTION ASSAY - IC50): 5.20
23 | Fc1ccc(CNCC2(c3ccnc(-c4ccc(Cl)cc4)c3)CC2)cc1 | > 10 | pIC50 (PBLUC_HILL_SLOPE 1.81, PBLUC_R_SQUARED 0.142, read-out: LUCIFERASE INFECTION ASSAY - IC50): < 5.00
24 | Cc1[nH]c(-c2ccccn2)nc(=O)c1CC(=O)OCc1nc2ccccc2s1 | > 10 | pIC50 (PBLUC_HILL_SLOPE 1.8, PBLUC_R_SQUARED 0.582, read-out: LUCIFERASE INFECTION ASSAY - IC50): 5.14
25 | CC1CCN(C(=O)c2csc(-c3ccco3)n2)c2ccccc2S1 (stereo not given) | 7.59 | pIC50 (PBLUC_HILL_SLOPE 1.74, PBLUC_R_SQUARED 0.579, read-out: LUCIFERASE INFECTION ASSAY - IC50): 5.67
26 | NC1=NC(=S)N=C(N)C1=C(CS(=O)(=O)c1ccccc1)c1ccccc1 | > 8.58 | pIC50 (PBLUC_HILL_SLOPE 1.77, PBLUC_R_SQUARED 0.148, read-out: LUCIFERASE INFECTION ASSAY - IC50): < 5.07
27 | CC(C)(C)c1ccc(COc2cccnc2N=CNO)cc1 | > 11 | pIC50 (PBLUC_HILL_SLOPE 1.74, PBLUC_R_SQUARED 0.362, read-out: LUCIFERASE INFECTION ASSAY - IC50): 5.18
28 | CCOC(=O)c1sc2nc(C)nc(N(C)Cc3ccccc3)c2c1C | > 10 | pIC50 (PBLUC_HILL_SLOPE 1.75, PBLUC_R_SQUARED 0.422, read-out: LUCIFERASE INFECTION ASSAY - IC50): 5.10
29 | COc1ccc2c(=O)c(C(=O)N(C)Cc3ccc(F)c(F)c3)c[nH]c2c1 | 4.7 | pIC50 (PBLUC_HILL_SLOPE 1.79, PBLUC_R_SQUARED 0.658, read-out: LUCIFERASE INFECTION ASSAY - IC50): 5.86
30 | Cc1cccc(/C=C2\CC(C#N)(c3ccccc3)C/C(=C\c3cccc(C)c3)C2=O)c1 (stereo not given) | > 10 | pIC50 (PBLUC_HILL_SLOPE 1.76, PBLUC_R_SQUARED 0.46, read-out: LUCIFERASE INFECTION ASSAY - IC50): 5.04
31 | COCCNc1cc(C(C)C)nc2c(-c3ccccc3)cnn12 | > 10.6 | pIC50 (PBLUC_HILL_SLOPE 1.73, PBLUC_R_SQUARED 0.539, read-out: LUCIFERASE INFECTION ASSAY - IC50): 5.52
32 | O=C(Nc1ccccc1Nc1cc(-c2ccccc2)nn1-c1ccccc1)c1ccc([N+](=O)[O-])cc1 | > 10 | pIC50 (PBLUC_HILL_SLOPE 1.78, PBLUC_R_SQUARED 0.355, read-out: LUCIFERASE INFECTION ASSAY - IC50): 5.06
33 | N#CN=c1nc(/C=C/c2ccccc2Cl)[nH]c(-c2ccccc2O)n1 | 4.29 | pIC50 (PBLUC_HILL_SLOPE 1.8, PBLUC_R_SQUARED 0.74, read-out: LUCIFERASE INFECTION ASSAY - IC50): 5.90
34 | CN(C)c1ccc(NC(=O)C2(C)CCCCN2C)cc1 (stereo not given) | > 12 | pIC50 (PBLUC_HILL_SLOPE 1.77, PBLUC_R_SQUARED 0.752, read-out: LUCIFERASE INFECTION ASSAY - IC50): 5.18
35 | COc1ccccc1CN1CCN2C(=O)[C@@H](Cc3ccc(O)cc3)NC(=O)[C@H]2C1 | > 8.34 | pIC50 (PBLUC_HILL_SLOPE 1.8, PBLUC_R_SQUARED 0.229, read-out: LUCIFERASE INFECTION ASSAY - IC50): 5.35
36 | Cc1nn(CC(=O)NNC(=O)CC23CC4CC(CC(C4)C2)C3)c(=O)c2ccccc12 | 6.96 | pIC50 (PBLUC_HILL_SLOPE 1.76, PBLUC_R_SQUARED 0.72, read-out: LUCIFERASE INFECTION ASSAY - IC50): 5.70
37 | COc1cccc(C(=O)Nc2ccc3nc(-c4cc(OC)c(OC)c(OC)c4)nn3c2)c1 | 7.64 | pIC50 (PBLUC_HILL_SLOPE 1.78, PBLUC_R_SQUARED 0.523, read-out: LUCIFERASE INFECTION ASSAY - IC50): 5.65
38 | Cc1cnc(-c2nc(-c3ccccc3)c3n2CCN(Cc2ccc(C4CCCCO4)s2)C3)cn1 (stereo not given) | > 7 | pIC50 (PBLUC_HILL_SLOPE 1.74, PBLUC_R_SQUARED 0.822, read-out: LUCIFERASE INFECTION ASSAY - IC50): 5.44
39 | Cc1noc(C)c1C(=O)OCC(=O)c1cc(C)n(-c2ccccc2F)c1C | > 10 | pIC50 (PBLUC_HILL_SLOPE 1.73, PBLUC_R_SQUARED 0.622, read-out: LUCIFERASE INFECTION ASSAY - IC50): 5.38
40 | COc1ncccc1CNC(=O)C1=COCCO1 | > 10 | pIC50 (PBLUC_HILL_SLOPE 1.77, PBLUC_R_SQUARED 0.251, read-out: LUCIFERASE INFECTION ASSAY - IC50): 5.23
